Reference: patent US7846697B2, “Method of producing a low molecular weight organic compound in a cell” (BLMaps, priority 2003, dated 2010)

System: E. coli strain KO1418 transformants
Test: Toxicity of vanillin with constitutive expression of UGT85B1 or AS, growth on plates
Format: cell-based
Description: For experimentation with constitutive expression of UGT85B1 and AS, the E. coli strains JM109, and K01418 were transformed with the constructed plasmids pJH 430, pJH431, pJH432, pJH433, pJH434, pJH435, pJH436, pJH437, pJH438, pJH439, pJH440, and pJH441, and pKOL30 as control, employing standard transformation protocols. Transformants were selected for ampicilin resistance, and two transformants of each E. coli strain with each plasmid were kept for expression experiments. The E. coli transformants were inoculated from plate cultures into 2 ml liquid growth medium (LB medium containing ampicilin at 100 μg/ml), and allowed to grow for 20 hours at 37° C. The precultures were diluted 100 times 10^4 times and 10^6 times in growth medium, and 4 μl droplets of these cell suspensions were applied to the surface of Petri dishes containing solid LB-ampicilin medium containing varying concentrations of vanillin (based on the STV determinations described above). The plates were incubated at 37° C. for 24 hours, after which growth on the various concentrations of vanillin was monitored and recorded.

In the case of `COc1cc(C=O)ccc1O` [Vanillin, vanillin], the growth (KO1418 [pJH430], 0.08% vanillin) is reported as “+++”, the growth (KO1418 [pJH430], 0.12% vanillin) is reported as “+++” and the growth (KO1418 [pJH430], 0.16% vanillin) is reported as “+++”. For the same compound, the growth (KO1418 [pJH431], 0.08% vanillin) was “+++”, the growth (KO1418 [pJH431], 0.12% vanillin) was “+++” and the growth (KO1418 [pJH431], 0.16% vanillin) was “+++”. The growth (KO1418 [pJH432], 0.08% vanillin) was “+++”, the growth (KO1418 [pJH432], 0.12% vanillin) was “+++” and the growth (KO1418 [pJH432], 0.16% vanillin) was “+”. For the same compound, the growth (KO1418 [pJH433], 0.08% vanillin) was “+++”, the growth (KO1418 [pJH433], 0.12% vanillin) was “+++” and the growth (KO1418 [pJH433], 0.16% vanillin) was “+++”. The growth (KO1418 [pKOL30], 0.08% vanillin) was “+++”, the growth (KO1418 [pKOL30], 0.12% vanillin) was “++” and the growth (KO1418 [pKOL30], 0.16% vanillin) was “+”.
